These are literature values, as cited in patent US6517814B2, “Macrocyclic chelants useful for metallopharmaceuticals” (Bristol-Myers Squibb Pharma Company, priority 2001, dated 2003).

Like-named read-outs stand apart in the source and are kept apart here.

For `O=C([O-])CN1CCN(CC(=O)[O-])CCN(CC(=O)[O-])CCN(CC(=O)[O-])CC1.[Gd+3]` [[Gd(DOTA]^−], the half-life (usually how long it takes for the measured level to halve) (in 0.1 M HCl) is recorded as 60.2 h. Regarding `O=C([O-])CN(CCN(CC(=O)[O-])CC(=O)[O-])CCN(CC(=O)[O-])CC(=O)[O-].[Gd+3]` [[Gd(DTPA]^2−], the half-life (decomposes rapidly under acidic conditions) is around 0.0167 h.
